# Results as given in patent publication US20260184675A1, “CHIRAL ISOMERIC SULFITE COMPOUND AND APPLICATION THEREOF” (Chengdu Hanova BioSciences Co., Ltd, priority 2024, published 2026).
# What was measured:
# [1] = tested on: eggs of Spodoptera litura; experiment: Effect on hatching of eggs of Spodoptera litura, egg piece soaking; format: in vivo; conditions: 500 ppm; for Hatching rate (%), Replicate 1 / Hatching rate (%), Replicate 2 / Hatching rate (%), Replicate 3 / Number of unhatched larvae 4 days after insecticide delivery, Replicate 1 / Number of unhatched larvae 4 days after insecticide delivery, Replicate 2 / Number of unhatched larvae 4 days after insecticide delivery, Replicate 3: Spodoptera litura eggs; for Hatching rate (%), Replicate 1 / Hatching rate (%), Replicate 2 / Hatching rate (%), Replicate 3: 4 days after delivery; for Number of unhatched larvae 4 days after insecticide delivery, Replicate 1 / Number of unhatched larvae 4 days after insecticide delivery, Replicate 2 / Number of unhatched larvae 4 days after insecticide delivery, Replicate 3: soaked 10 minutes
# Method in brief: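 Egg pieces of about 60 eggs were soaked 10 min in test agent at 500 ppm, blotted, then held singly at 24±1 °C, 80±10% RH, 12:12 L:D. Hatched and unhatched eggs were counted on day 4 to give hatching rate and control effect; 3 replicates.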
# [2] = tested on: eggs of Harmonia axyridis; experiment: Effect on hatching of eggs of Harmonia axyridis, egg card immersion; format: in vivo; conditions: 100 ppm; for Number of hatched larvae 4 days after insecticide delivery, Replicate 1 / Number of hatched larvae 4 days after insecticide delivery, Replicate 2 / Number of hatched larvae 4 days after insecticide delivery, Replicate 3: Harmonia axyridis egg cards, immersed 30 seconds; for Hatching rate (%), Replicate 1 / Hatching rate (%), Replicate 2 / Hatching rate (%), Replicate 3: Harmonia axyridis eggs, 4 days after delivery
# Method in brief: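 Egg cards (~20 eggs each) dipped 30 s in 100 ppm insecticide, air dried and kept moist at 27° C; 5 cards per treatment, 3 replicates. Hatching assessed 4 days after treatment against pre-treatment egg counts, and control effect calculated by formula.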
# [3] = tested on: Magnaporthe grisea; format: cell-based; conditions: 100 ppm; for Average antifungal rate (%) / Antifungal rate of Magnaporthe grisea (%), Replicate 1 / Antifungal rate of Magnaporthe grisea (%), Replicate 2 / Antifungal rate of Magnaporthe grisea (%), Replicate 3: 96-well plate; for Average antifungal rate (%): average of 3 replicates
# [4] = tested on: eggs of Thrips; experiment: Effect on hatching of eggs of Thrips, leaf disc method; format: in vivo; conditions: 100 ppm; for Hatching rate (%): 5 days after insecticide delivery
# Method in brief: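 Egg-bearing Vicia faba leaf discs (diameter 2.0 cm, wetted filter paper beneath) were counted microscopically for baseline eggs. They were then soaked for 10 seconds in water or in test agent at 100 ppm. After moist incubation in lidded dishes, with controlled temperature and humidity and adequate indirect light, hatched larvae were counted five days post-delivery to judge hatching inhibition.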
# [5] = tested on: eggs of Aleyrodidae; experiment: Effect on hatching of eggs of Aleyrodidae, leaf disc method; format: in vivo; conditions: 10 ppm; for Hatching rate (%), Replicate 1 / Hatching rate (%), Replicate 2 / Hatching rate (%), Replicate 3 / Number of hatched larvae 5 days after insecticide delivery, Replicate 1 / Number of hatched larvae 5 days after insecticide delivery, Replicate 2 / Number of hatched larvae 5 days after insecticide delivery, Replicate 3: Aleyrodidae eggs; for Hatching rate (%), Replicate 1 / Hatching rate (%), Replicate 2 / Hatching rate (%), Replicate 3: 5 days after delivery; for Number of hatched larvae 5 days after insecticide delivery, Replicate 1 / Number of hatched larvae 5 days after insecticide delivery, Replicate 2 / Number of hatched larvae 5 days after insecticide delivery, Replicate 3: leaf disc
# Method in brief: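 Leaf discs carrying Aleyrodidae eggs were first examined microscopically to record a baseline egg count. They were then dipped for 10 seconds in compound solution at 10 ppm or in clear water, taken out, and incubated with humidity maintained. Five days after delivery, the number of hatched larvae was recorded to assess hatching inhibition.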
# [6] = Replicate 1, listed as 19′-(S, R)
# [7] = Replicate 2, listed as 19′-(S, R)
# [8] = Replicate 3, listed as 19′-(S, R)
# [9] = Replicate 1, listed as 19′-(S, S)
# [10] = Replicate 2, listed as 19′-(S, S)
# [11] = Replicate 3, listed as 19′-(S, S)
compound,measurement,setting,value
"CC[C@@H](COS(=O)OCCF)Oc1ccc(Cl)cc1Cl (stereo partly drawn) [19′-(S,R)]","Hatching rate (%), Replicate 1","[1]; listed as 19′-(S, R)",53.57%
same,"Hatching rate (%), Replicate 2","[1]; listed as 19′-(S, R)",53.23%
same,"Hatching rate (%), Replicate 3","[1]; listed as 19′-(S, R)",53.73%
same,"Number of unhatched larvae 4 days after insecticide delivery, Replicate 1","[1]; listed as 19′-(S, R)",26
same,"Number of unhatched larvae 4 days after insecticide delivery, Replicate 2","[1]; listed as 19′-(S, R)",29
same,"Number of unhatched larvae 4 days after insecticide delivery, Replicate 3","[1]; listed as 19′-(S, R)",31
same,"Number of hatched larvae 4 days after insecticide delivery, Replicate 1","[2]; listed as 19′-(S, R)",10
same,"Number of hatched larvae 4 days after insecticide delivery, Replicate 2","[2]; listed as 19′-(S, R)",10
same,"Number of hatched larvae 4 days after insecticide delivery, Replicate 3","[2]; listed as 19′-(S, R)",11
same,"Hatching rate (%), Replicate 1","[2]; listed as 19′-(S, R)",10.42%
same,"Hatching rate (%), Replicate 2","[2]; listed as 19′-(S, R)",9.35%
same,"Hatching rate (%), Replicate 3","[2]; listed as 19′-(S, R)",9.82%
same,inhibitory rate against Magnaporthe grisea (in words),[3],strong inhibitory rate
same,Average antifungal rate (%),[3],86.23%
same,"Antifungal rate of Magnaporthe grisea (%), Replicate 1",[3],86.44%
same,"Antifungal rate of Magnaporthe grisea (%), Replicate 2",[3],85.97%
same,"Antifungal rate of Magnaporthe grisea (%), Replicate 3",[3],86.28%
same,Hatching rate (%),[4]; [6],9.40%
same,Hatching rate (%),[4]; [7],10.32%
same,Hatching rate (%),[4]; [8],9.52%
same,Number of hatched larvae 5 days after insecticide delivery,[4]; [6],11
same,Number of hatched larvae 5 days after insecticide delivery,[4]; [7],13
same,Number of hatched larvae 5 days after insecticide delivery,[4]; [8],8
same,"Hatching rate (%), Replicate 1","[5]; listed as 19′-(S, R)",10.53%
same,"Hatching rate (%), Replicate 2","[5]; listed as 19′-(S, R)",10.24%
same,"Hatching rate (%), Replicate 3","[5]; listed as 19′-(S, R)",10.20%
same,"Number of hatched larvae 5 days after insecticide delivery, Replicate 1","[5]; listed as 19′-(S, R)",10
same,"Number of hatched larvae 5 days after insecticide delivery, Replicate 2","[5]; listed as 19′-(S, R)",13
same,"Number of hatched larvae 5 days after insecticide delivery, Replicate 3","[5]; listed as 19′-(S, R)",10
"CC[C@@H](COS(=O)OCCF)Oc1ccc(Cl)cc1Cl (stereo partly drawn) [19′-(S,S)]",inhibitory activity on the hatching of eggs of Spodoptera litura (in words),[1],good inhibitory activities
same,"Hatching rate (%), Replicate 1","[1]; listed as 19′-(S, S)",17.54%
same,"Hatching rate (%), Replicate 2","[1]; listed as 19′-(S, S)",19.70%
same,"Hatching rate (%), Replicate 3","[1]; listed as 19′-(S, S)",18.87%
same,"Number of unhatched larvae 4 days after insecticide delivery, Replicate 1","[1]; listed as 19′-(S, S)",47
same,"Number of unhatched larvae 4 days after insecticide delivery, Replicate 2","[1]; listed as 19′-(S, S)",53
same,"Number of unhatched larvae 4 days after insecticide delivery, Replicate 3","[1]; listed as 19′-(S, S)",43
same,inhibitory activity on the hatching of eggs of Harmonia axyridis (in words),[2],strong inhibitory activities
same,"Number of hatched larvae 4 days after insecticide delivery, Replicate 1","[2]; listed as 19′-(S, S)",0
same,"Number of hatched larvae 4 days after insecticide delivery, Replicate 2","[2]; listed as 19′-(S, S)",0
same,"Number of hatched larvae 4 days after insecticide delivery, Replicate 3","[2]; listed as 19′-(S, S)",0
same,"Hatching rate (%), Replicate 1","[2]; listed as 19′-(S, S)",0.00%
same,"Hatching rate (%), Replicate 2","[2]; listed as 19′-(S, S)",0.00%
same,"Hatching rate (%), Replicate 3","[2]; listed as 19′-(S, S)",0.00%
same,inhibitory rate against Magnaporthe grisea (in words),[3],strong inhibitory rate
same,Average antifungal rate (%),[3],97.09%
same,"Antifungal rate of Magnaporthe grisea (%), Replicate 1",[3],97.41%
same,"Antifungal rate of Magnaporthe grisea (%), Replicate 2",[3],96.58%
same,"Antifungal rate of Magnaporthe grisea (%), Replicate 3",[3],97.29%
same,inhibitory activity on the hatching of eggs of Thrips (in words),[4],strong inhibitory activities
same,Hatching rate (%),[4]; [9],0.00%
same,Hatching rate (%),[4]; [10],0.00%
same,Hatching rate (%),[4]; [11],0.00%
same,Number of hatched larvae 5 days after insecticide delivery,[4]; [9],0
same,Number of hatched larvae 5 days after insecticide delivery,[4]; [10],0
same,Number of hatched larvae 5 days after insecticide delivery,[4]; [11],0
same,inhibitory activity on the hatching of eggs of Aleyrodidae (in words),[5],strong inhibitory activities
same,"Hatching rate (%), Replicate 1","[5]; listed as 19′-(S, S)",0.00%
same,"Hatching rate (%), Replicate 2","[5]; listed as 19′-(S, S)",0.00%
same,"Hatching rate (%), Replicate 3","[5]; listed as 19′-(S, S)",0.00%
same,"Number of hatched larvae 5 days after insecticide delivery, Replicate 1","[5]; listed as 19′-(S, S)",0
same,"Number of hatched larvae 5 days after insecticide delivery, Replicate 2","[5]; listed as 19′-(S, S)",0
same,"Number of hatched larvae 5 days after insecticide delivery, Replicate 3","[5]; listed as 19′-(S, S)",0
CC(COS(=O)OCCF)Oc1ccc(Cl)cc1Cl (stereo not shown) [Compound 1],"Hatching rate (%), Replicate 1",[1],41.38%
same,"Hatching rate (%), Replicate 2",[1],39.68%
same,"Hatching rate (%), Replicate 3",[1],40.42%
same,"Number of unhatched larvae 4 days after insecticide delivery, Replicate 1",[1],34
same,"Number of unhatched larvae 4 days after insecticide delivery, Replicate 2",[1],38
same,"Number of unhatched larvae 4 days after insecticide delivery, Replicate 3",[1],37
same,inhibitory activity on the hatching of eggs of Harmonia axyridis (in words),[2],strong inhibitory activities
same,"Number of hatched larvae 4 days after insecticide delivery, Replicate 1",[2],7
same,"Number of hatched larvae 4 days after insecticide delivery, Replicate 2",[2],6
same,"Number of hatched larvae 4 days after insecticide delivery, Replicate 3",[2],6
same,"Hatching rate (%), Replicate 1",[2],6.25%
same,"Hatching rate (%), Replicate 2",[2],6.38%
same,"Hatching rate (%), Replicate 3",[2],6.06%
same,inhibitory rate against Magnaporthe grisea (in words),[3],strong inhibitory rate
same,Average antifungal rate (%),[3],95.42%
same,"Antifungal rate of Magnaporthe grisea (%), Replicate 1",[3],96.34%
same,"Antifungal rate of Magnaporthe grisea (%), Replicate 2",[3],95.11%
same,"Antifungal rate of Magnaporthe grisea (%), Replicate 3",[3],94.82%
same,inhibitory activity on the hatching of eggs of Thrips (in words),[4],strong inhibitory activities
same,Hatching rate (%),[4]; Replicate 1,0.00%
same,Hatching rate (%),[4]; Replicate 2,1.57%
same,Hatching rate (%),[4]; Replicate 3,0.00%
same,Number of hatched larvae 5 days after insecticide delivery,[4]; Replicate 1,0
same,Number of hatched larvae 5 days after insecticide delivery,[4]; Replicate 2,2
same,Number of hatched larvae 5 days after insecticide delivery,[4]; Replicate 3,0
same,inhibitory activity on the hatching of eggs of Aleyrodidae (in words),[5],strong inhibitory activities
same,"Hatching rate (%), Replicate 1",[5],0.00%
same,"Hatching rate (%), Replicate 2",[5],1.50%
same,"Hatching rate (%), Replicate 3",[5],0.00%
same,"Number of hatched larvae 5 days after insecticide delivery, Replicate 1",[5],0
same,"Number of hatched larvae 5 days after insecticide delivery, Replicate 2",[5],2
same,"Number of hatched larvae 5 days after insecticide delivery, Replicate 3",[5],0
